Earlier results on one molecule are cited in US20090053319A1 (priority 2007, published 2009).

The conditions of the series: pure capsaicinoid; background statement.

On to `COc1cc(CNC(=O)CCCC/C=C/C(C)C)ccc1O` [Capsaicin], for which the “pungency (Scoville scale)” value is reported as 15,000,000-16,000,000 Scoville units.
